From patent US20240327364A1, “THERAPEUTIC TARGETING OF GPR68 TO INDUCE FERROPTOSIS” (University Of Maryland, Baltimore, priority 2023, published 2024)

Experiments:
[1] = biological target: T1, ABL1(F317L)-nonphosphorylated (Homo sapiens, UniProt P00519, F317L); experiment: KinomeScan; format: binding; settings: read-out: % Control
T1 construct: purchased DiscoveRx

[2] = biological target: T2, DYRK1B (Homo sapiens, UniProt Q9Y463); experiment: KinomeScan; format: binding; settings: read-out: % Control
T2 construct: purchased DiscoveRx (Fremont, CA), KinomeScan service

[3] = biological target: T3, ICK (Homo sapiens, UniProt Q9UPZ9); experiment: KinomeScan; format: binding; settings: read-out: % Control
T3 construct: purchased DiscoveRx (Fremont, CA)

[4] = biological target: T4, LZK (Homo sapiens, UniProt O43283); experiment: KinomeScan; format: binding; settings: read-out: % Control
T4 construct: purchased DiscoveRx

[5] = biological target: CSNK2A1 (Homo sapiens, UniProt P68400); experiment: KinomeScan; format: binding; settings: read-out: % Control
[6] = biological target: T5, MAST1 (Homo sapiens, UniProt Q9Y2H9); experiment: KinomeScan; format: binding; settings: read-out: % Control
T5 construct: purchased DiscoveRx (Fremont, CA)

[7] = biological target: T6, CAMK1D (Homo sapiens, UniProt Q8IU85); experiment: KinomeScan; format: binding; settings: read-out: % Control
T6 construct: purchased DiscoveRx (KinomeScan service)
T6 sequence (Q8IU85 whole entry): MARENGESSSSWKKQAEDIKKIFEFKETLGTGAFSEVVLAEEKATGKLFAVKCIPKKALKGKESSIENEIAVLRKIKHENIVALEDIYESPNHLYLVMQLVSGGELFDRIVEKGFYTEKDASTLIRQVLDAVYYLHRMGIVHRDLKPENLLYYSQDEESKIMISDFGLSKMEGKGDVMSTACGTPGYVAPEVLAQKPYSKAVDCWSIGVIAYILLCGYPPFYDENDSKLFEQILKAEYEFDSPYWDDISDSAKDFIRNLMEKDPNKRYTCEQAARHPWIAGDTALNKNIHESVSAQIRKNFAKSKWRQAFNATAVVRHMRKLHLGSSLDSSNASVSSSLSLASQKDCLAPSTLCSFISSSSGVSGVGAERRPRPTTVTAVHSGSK

[8] = biological target: CSF1R (Homo sapiens, UniProt P07333); experiment: KinomeScan; format: binding; settings: read-out: % Control
[9] = biological target: T7, YSK1 (Homo sapiens, UniProt O00506); experiment: KinomeScan; format: binding; settings: read-out: % Control
T7 construct: purchased DiscoveRx

[10] = biological target: T8, NEK9 (Homo sapiens, UniProt Q8TD19); experiment: KinomeScan; format: binding; settings: read-out: % Control
T8 construct: purchased DiscoveRx
T8 sequence (Q8TD19 whole entry): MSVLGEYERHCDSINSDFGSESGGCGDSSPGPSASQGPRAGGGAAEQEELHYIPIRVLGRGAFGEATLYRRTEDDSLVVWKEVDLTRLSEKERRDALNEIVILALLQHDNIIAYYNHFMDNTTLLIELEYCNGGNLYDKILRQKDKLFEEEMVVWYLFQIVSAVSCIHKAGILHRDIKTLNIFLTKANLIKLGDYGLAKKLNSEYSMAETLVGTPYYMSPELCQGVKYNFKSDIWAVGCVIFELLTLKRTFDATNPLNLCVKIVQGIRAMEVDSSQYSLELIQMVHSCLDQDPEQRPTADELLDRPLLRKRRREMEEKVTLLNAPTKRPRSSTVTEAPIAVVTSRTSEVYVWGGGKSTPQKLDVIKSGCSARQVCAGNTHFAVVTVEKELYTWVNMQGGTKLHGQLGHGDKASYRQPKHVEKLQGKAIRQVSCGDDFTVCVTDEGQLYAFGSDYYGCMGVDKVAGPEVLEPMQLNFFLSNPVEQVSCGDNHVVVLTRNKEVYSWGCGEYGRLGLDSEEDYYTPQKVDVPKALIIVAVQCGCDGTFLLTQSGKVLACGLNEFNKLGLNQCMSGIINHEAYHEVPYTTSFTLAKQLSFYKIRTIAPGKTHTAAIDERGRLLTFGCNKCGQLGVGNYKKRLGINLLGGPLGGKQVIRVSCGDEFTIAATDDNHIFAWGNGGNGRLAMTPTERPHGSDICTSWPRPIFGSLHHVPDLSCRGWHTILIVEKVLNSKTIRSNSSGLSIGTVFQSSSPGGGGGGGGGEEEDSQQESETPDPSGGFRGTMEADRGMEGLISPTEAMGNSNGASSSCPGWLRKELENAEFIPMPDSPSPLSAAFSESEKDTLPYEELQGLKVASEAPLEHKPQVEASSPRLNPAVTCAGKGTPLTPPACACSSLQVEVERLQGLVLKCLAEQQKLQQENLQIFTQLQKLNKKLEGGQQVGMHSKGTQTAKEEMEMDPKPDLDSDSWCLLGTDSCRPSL

[11] = biological target: T9, mGlu1 (Homo sapiens, UniProt Q13255); experiment: GPCR Profiler; format: cell-based
T9 construct: host or cells: Chem-1 cells expressing Gα15
T9 sequence (Q13255 19-1194): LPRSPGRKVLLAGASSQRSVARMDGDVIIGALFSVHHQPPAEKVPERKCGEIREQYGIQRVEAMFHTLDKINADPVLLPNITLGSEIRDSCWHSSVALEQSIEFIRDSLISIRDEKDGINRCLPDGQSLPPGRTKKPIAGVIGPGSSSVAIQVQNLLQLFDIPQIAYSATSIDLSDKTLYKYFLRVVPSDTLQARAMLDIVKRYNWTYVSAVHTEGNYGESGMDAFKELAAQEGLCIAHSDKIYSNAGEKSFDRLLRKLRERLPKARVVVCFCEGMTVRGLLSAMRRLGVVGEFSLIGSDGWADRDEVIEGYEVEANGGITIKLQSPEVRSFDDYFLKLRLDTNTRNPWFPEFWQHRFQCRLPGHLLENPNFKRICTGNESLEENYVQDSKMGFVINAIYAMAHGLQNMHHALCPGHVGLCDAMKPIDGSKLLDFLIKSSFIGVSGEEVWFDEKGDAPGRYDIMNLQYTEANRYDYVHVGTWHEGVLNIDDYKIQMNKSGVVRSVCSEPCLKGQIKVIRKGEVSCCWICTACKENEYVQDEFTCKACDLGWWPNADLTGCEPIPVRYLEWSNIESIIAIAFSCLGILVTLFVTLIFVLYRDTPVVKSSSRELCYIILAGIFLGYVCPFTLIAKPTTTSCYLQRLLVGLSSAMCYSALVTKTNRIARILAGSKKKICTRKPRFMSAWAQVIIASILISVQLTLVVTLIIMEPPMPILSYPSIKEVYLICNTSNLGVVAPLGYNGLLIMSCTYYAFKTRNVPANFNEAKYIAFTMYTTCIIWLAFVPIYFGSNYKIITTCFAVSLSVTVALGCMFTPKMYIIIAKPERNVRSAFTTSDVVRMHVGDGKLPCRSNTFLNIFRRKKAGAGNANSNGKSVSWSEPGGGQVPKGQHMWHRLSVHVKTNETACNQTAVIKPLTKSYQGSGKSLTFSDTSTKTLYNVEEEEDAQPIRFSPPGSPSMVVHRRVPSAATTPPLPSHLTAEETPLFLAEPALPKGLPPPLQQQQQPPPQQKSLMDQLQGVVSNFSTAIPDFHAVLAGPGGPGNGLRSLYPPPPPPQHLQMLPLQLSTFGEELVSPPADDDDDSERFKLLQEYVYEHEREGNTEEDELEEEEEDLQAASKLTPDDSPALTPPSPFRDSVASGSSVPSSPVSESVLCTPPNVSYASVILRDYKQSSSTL

[12] = biological target: T10, MST2 (Homo sapiens, UniProt Q13188); experiment: KinomeScan; format: binding; settings: read-out: % Control
T10 construct: purchased DiscoveRx

[13] = biological target: T11, WEE1 (Homo sapiens, UniProt P30291); experiment: KinomeScan; format: binding; settings: read-out: % Control
T11 construct: purchased DiscoveRx

[14] = biological target: CHEK1 (Homo sapiens, UniProt O14757); experiment: KinomeScan; format: binding; settings: read-out: % Control
[15] = biological target: T12, PCTK3 (Homo sapiens, UniProt Q07002); experiment: KinomeScan; format: binding; settings: read-out: % Control
T12 construct: purchased DiscoveRx

[16] = biological target: T13, EP1 (Homo sapiens, UniProt P34995); experiment: GPCR Profiler; format: cell-based
T13 construct: host or cells: Chem-1 cells expressing Gα15
T13 sequence (P34995 whole entry): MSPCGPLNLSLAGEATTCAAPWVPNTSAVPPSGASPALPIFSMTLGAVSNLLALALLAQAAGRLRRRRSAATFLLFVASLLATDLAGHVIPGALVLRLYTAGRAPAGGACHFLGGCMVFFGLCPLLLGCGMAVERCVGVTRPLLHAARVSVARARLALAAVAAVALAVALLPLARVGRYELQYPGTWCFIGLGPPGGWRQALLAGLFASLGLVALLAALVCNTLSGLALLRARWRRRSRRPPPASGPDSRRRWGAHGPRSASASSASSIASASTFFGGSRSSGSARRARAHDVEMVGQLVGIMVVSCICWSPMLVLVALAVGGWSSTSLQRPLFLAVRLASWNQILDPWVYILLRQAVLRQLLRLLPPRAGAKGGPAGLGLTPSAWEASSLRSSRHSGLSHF

[17] = biological target: T14, EGFR(S752-1759del) (Homo sapiens, UniProt P00533, DEL752-759); experiment: KinomeScan; format: binding; settings: read-out: % Control
T14 construct: purchased DiscoveRx (Fremont, CA)

[18] = biological target: T15, ETA (Homo sapiens, UniProt P25101); experiment: GPCR Profiler; format: cell-based
T15 construct: host or cells: Chem-1 cells expressing Gα15
T15 sequence (P25101 21-427): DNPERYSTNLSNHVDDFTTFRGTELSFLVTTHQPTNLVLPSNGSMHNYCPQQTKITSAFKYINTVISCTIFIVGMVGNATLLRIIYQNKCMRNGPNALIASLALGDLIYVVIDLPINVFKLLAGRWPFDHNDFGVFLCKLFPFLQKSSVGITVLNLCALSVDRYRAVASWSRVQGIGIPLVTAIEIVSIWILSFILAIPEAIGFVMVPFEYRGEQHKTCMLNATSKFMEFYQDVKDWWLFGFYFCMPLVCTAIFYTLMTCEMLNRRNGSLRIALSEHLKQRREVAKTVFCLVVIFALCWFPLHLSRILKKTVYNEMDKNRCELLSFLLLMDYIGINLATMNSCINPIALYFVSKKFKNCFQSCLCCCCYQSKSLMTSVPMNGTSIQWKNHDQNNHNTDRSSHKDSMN

[19] = biological target: T16, PFPK5(P. falciparum) (Plasmodium falciparum, UniProt P61075); experiment: KinomeScan; format: binding; settings: read-out: % Control
T16 construct: purchased DiscoveRx (Fremont, CA)

[20] = biological target: T17, KIT(A829P) (Homo sapiens, UniProt P10721, A829P); experiment: KinomeScan; format: binding; settings: read-out: % Control
T17 construct: purchased DiscoveRx
T17 sequence (P10721 26-976 A829P): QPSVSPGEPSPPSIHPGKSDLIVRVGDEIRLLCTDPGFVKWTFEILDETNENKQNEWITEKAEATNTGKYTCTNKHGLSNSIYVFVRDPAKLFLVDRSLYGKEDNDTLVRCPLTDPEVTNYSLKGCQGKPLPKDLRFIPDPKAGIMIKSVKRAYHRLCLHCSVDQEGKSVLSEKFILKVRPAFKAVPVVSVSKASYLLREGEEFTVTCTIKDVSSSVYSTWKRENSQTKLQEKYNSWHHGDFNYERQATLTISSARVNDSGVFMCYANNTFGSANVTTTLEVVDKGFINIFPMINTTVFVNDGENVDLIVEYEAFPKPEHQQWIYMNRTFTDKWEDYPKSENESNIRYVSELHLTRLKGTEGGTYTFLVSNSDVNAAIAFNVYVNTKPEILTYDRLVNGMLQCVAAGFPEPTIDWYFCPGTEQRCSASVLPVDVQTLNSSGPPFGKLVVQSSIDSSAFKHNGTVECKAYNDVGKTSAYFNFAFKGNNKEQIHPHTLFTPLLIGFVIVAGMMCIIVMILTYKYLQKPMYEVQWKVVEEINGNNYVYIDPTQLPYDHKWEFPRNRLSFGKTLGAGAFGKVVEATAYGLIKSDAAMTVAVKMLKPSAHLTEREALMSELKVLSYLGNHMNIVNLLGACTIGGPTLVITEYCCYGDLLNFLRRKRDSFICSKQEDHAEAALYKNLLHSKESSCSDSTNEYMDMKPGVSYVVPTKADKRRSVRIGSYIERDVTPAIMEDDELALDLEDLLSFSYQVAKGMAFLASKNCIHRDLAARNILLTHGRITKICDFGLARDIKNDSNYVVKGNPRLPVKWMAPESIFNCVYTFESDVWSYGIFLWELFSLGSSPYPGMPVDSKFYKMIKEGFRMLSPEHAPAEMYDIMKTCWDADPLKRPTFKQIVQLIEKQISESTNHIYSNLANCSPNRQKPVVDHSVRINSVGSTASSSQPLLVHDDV

[21] = biological target: T18, BIKE (Homo sapiens, UniProt Q9NSY1); experiment: KinomeScan; format: binding; settings: read-out: % Control
T18 construct: purchased DiscoveRx (Fremont, CA)

[22] = biological target: T19, TYK2(JH1domain-catalytic) (Homo sapiens, UniProt P29597); experiment: KinomeScan; format: binding; settings: read-out: % Control
T19 construct: TYK2(JH1domain-catalytic); purchased DiscoveRx

[23] = biological target: T20, CCR10 (Homo sapiens, UniProt P46092); experiment: GPCR Profiler; format: cell-based
T20 construct: host or cells: Chem-1 cells with Gα15
T20 sequence (P46092 whole entry): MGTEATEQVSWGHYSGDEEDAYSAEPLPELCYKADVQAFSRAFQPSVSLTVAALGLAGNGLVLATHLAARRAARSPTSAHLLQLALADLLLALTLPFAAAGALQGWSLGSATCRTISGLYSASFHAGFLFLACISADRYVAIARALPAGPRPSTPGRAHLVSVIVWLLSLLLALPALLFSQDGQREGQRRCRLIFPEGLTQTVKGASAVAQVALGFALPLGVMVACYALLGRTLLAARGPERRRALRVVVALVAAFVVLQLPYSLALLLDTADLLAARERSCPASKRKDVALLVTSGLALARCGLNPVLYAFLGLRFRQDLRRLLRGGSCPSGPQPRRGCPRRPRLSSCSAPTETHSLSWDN

[24] = test system: PC3; experiment: Liperfluo lipid peroxidation; format: cell-based, human
From the text: (§1) OGM2 kills prostate cancer cells by inducing ferroptosis (FIG. 100). […] OGM2 induces ferroptosis in DU145 cells (FIG. 100A) and PC3 cells (FIG. 100C) based on Liperfluo™ lipid peroxidation assay. Erastin, a cystine-glutamate antiporter system Xc^− inhibitor, is a positive control ferroptosis inducer.

[25] = test system: DU145; experiment: Liperfluo lipid peroxidation; format: cell-based, human
From the text: as §1

T1 sequence (P00519 242-493 F317L limits assumed): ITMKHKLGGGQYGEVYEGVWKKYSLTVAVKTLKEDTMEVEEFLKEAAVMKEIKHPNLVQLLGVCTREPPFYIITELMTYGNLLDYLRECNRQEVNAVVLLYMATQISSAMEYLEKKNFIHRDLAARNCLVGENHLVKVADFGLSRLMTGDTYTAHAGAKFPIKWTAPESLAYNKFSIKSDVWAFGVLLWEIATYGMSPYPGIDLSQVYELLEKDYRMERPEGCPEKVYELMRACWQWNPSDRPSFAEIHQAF

Compound: CCc1ccc2c(c1)C1(NN=C(c3cccc4ccccc34)S1)C(=O)N2 (centres unmarked) [OGM1, 5-ethyl-5′-naphthalen-1-ylspiro[1H-indole-3,2′-3H-1,3,4-thiadiazole]-2-one]
- remaining binding at 10 µM [1]: 96%
- remaining binding at 10 µM [2]: 58%
- remaining binding at 10 µM [3]: 81%
- remaining binding at 10 µM [4]: 100%
- remaining binding at 10 µM [5]: 96%
- remaining binding at 10 µM [6]: 58%
- remaining binding at 10 µM [7]: 68%
- remaining binding at 10 µM [8]: 78%
- remaining binding at 10 µM [9]: 80%
- remaining binding at 10 µM [10]: 100%
- Antagonism ([11]; 10 uM): −12.7
- Agonism ([11]; 12.5 uM): 1.1
- remaining binding at 10 µM [12]: 69%
- remaining binding at 10 µM [13]: 100%
- remaining binding at 10 µM [14]: 100%
- remaining binding at 10 µM [15]: 99%
- Antagonism ([16]; 10 uM): −6
- Agonism ([16]; 12.5 uM): 0.2
- remaining binding at 10 µM [17]: 91%
- Antagonism ([18]; 10 uM): 4.7
- Agonism ([18]; 12.5 uM): 0.1
- remaining binding at 10 µM [19]: 82%
- remaining binding at 10 µM [20]: 72%
- remaining binding at 10 µM [21]: 88%
- remaining binding at 10 µM [22]: 77%
- Antagonism ([23]; 10 uM): −16.7
- Agonism ([23]; 12.5 uM): −0.2

Compound: CCc1ccc2c(c1)C1(NN=C(c3ccccc3)S1)C(=O)N2 (centres unmarked) [OGM2]
- lipid peroxidation [24]: significantly increased lipid peroxidation
- lipid peroxidation [25]: significantly increased lipid peroxidation
